Laboratory results taken from US4272437A, “Antibacterial agents, and 4-thio azetidinone intermediates” (priority 1979, dated 1981).
Converted amounts (≈) assume the structure as drawn. Like-named read-outs stand apart in the source and are kept apart here.

Columns and labels:
[1] = tested on: Gram-negative and Gram-positive organisms; conditions: literature; cited from earlier work
Str. pneumoniae A-9585 = assay: MIC, tube dilution, Streptococcus pneumoniae A9585; format: cell-based; conditions: Streptococcus pneumoniae, A9585, Str. pneumoniae A9585; overnight 37° C., Nutrient Broth; read-out: Minimum Inhibitory Concentration (M.I.C.)
Source text: (§1) Representative compounds of the present invention were subjected to in vitro antibiotic screening against a variety of microorganisms.

Str. faecalis A-20688 = assay: MIC, tube dilution, Streptococcus faecalis A20688; format: cell-based; conditions: Enterococcus faecalis, A20688, Str. faecalis A20688; overnight 37° C.; read-out: Minimum Inhibitory Concentration (M.I.C.)
Source text: as §1

E. coli A-15119 = assay: MIC, tube dilution, Escherichia coli A15119; format: cell-based; conditions: Escherichia coli, A15119, E. coli A15119; overnight 37° C.; read-out: Minimum Inhibitory Concentration (M.I.C.)
Source text: as §1

Staph. aureus A-9537 = assay: MIC, tube dilution, Staphylococcus aureus A9537; format: cell-based; conditions: Staphylococcus aureus, A9537, Staph. aureus A9537; overnight 37° C., Nutrient Broth; read-out: Minimum Inhibitory Concentration (M.I.C.)
Source text: as §1

Ser. marcescens A-20019 = assay: MIC, tube dilution, Serratia marcescens A20019; format: cell-based; conditions: Serratia marcescens, A20019, Serratia marcescens A20019; overnight 37° C.; read-out: Minimum Inhibitory Concentration (M.I.C.)
Source text: as §1

Proteus rettgeri A21203 = assay: MIC, tube dilution, Proteus rettgeri A21203; format: cell-based; conditions: Providencia rettgeri, A21203, Proteus rettgeri A21203; overnight 37° C.; read-out: Minimum Inhibitory Concentration (M.I.C.)
Source text: as §1

Ent. cloacae A-9659 = assay: MIC, tube dilution, Enterobacter cloacae A9659; format: cell-based; conditions: Enterobacter cloacae, A9659, Enterobacter cloacae A9659; overnight 37° C.; read-out: Minimum Inhibitory Concentration (M.I.C.)
Source text: as §1

K. pneumoniae A-15130 = assay: MIC, tube dilution, Klebsiella pneumoniae A15130; format: cell-based; conditions: Klebsiella pneumoniae, A15130, K. pneumoniae A15130; overnight 37° C.; read-out: Minimum Inhibitory Concentration (M.I.C.)
Source text: as §1

[2] = tested on: Staph. aureus A-9537 and 50% serum; assay: MIC, tube dilution, Staph. aureus A9537 + 50% serum; format: cell-based, Staphylococcus aureus; conditions: Staphylococcus aureus, overnight 37° C., read-out: Minimum Inhibitory Concentration (M.I.C.)
Source text: as §1

Ps. aeruginosa A-21213 = assay: MIC, tube dilution, Pseudomonas aeruginosa A21213; format: cell-based; conditions: Pseudomonas aeruginosa, A21213, Pseudomonas aeruginosa A21213; overnight 37° C.; read-out: Minimum Inhibitory Concentration (M.I.C.)
Source text: as §1

[3] = tested on: Hemophilus influenzae A9833; assay: MIC, tube dilution, Hemophilus influenzae A9833; format: cell-based; conditions: Haemophilus influenzae; Hemophilus influenzae A9833; overnight 37° C.; read-out: Minimum Inhibitory Concentration (M.I.C.)
Source text: as §1

[4] = tested on: Staph. aureus (Pen-Res) A-9606; assay: MIC, tube dilution, Staphylococcus aureus A9606 (Pen-Res); format: cell-based; conditions: Staphylococcus aureus, Staph. aureus A9606 (Pen-Res); overnight 37° C.; read-out: Minimum Inhibitory Concentration (M.I.C.)
Source text: as §1

Ps. aeruginosa A-9843A = assay: MIC, tube dilution, Pseudomonas aeruginosa A9843A; format: cell-based; conditions: Pseudomonas aeruginosa, A9843A, read-out: Minimum Inhibitory Concentration (M.I.C.), Pseudomonas aeruginosa A9843A; overnight 37° C.
Source text: as §1

[5] = tested on: Klebsiella species A20468; assay: MIC, tube dilution, Klebsiella species A20468; format: cell-based; conditions: Klebsiella species (K. pneumoniae) A20468; overnight 37° C.; read-out: Minimum Inhibitory Concentration (M.I.C.)
Source text: as §1

[6] = tested on: Staph. aureus (Meth-Res) A-15097; assay: MIC, tube dilution, Staphylococcus aureus A15097 (Meth-Res); format: cell-based; conditions: Staphylococcus aureus, Staph. aureus A15097 (Meth-Res); overnight 37° C.; read-out: Minimum Inhibitory Concentration (M.I.C.)
Source text: as §1

Pr. morganii A-15153 = assay: MIC, tube dilution, Proteus morganii A15153; format: cell-based; conditions: Morganella morganii, A15153, Proteus morganii A15153; overnight 37° C.; read-out: Minimum Inhibitory Concentration (M.I.C.)
Source text: as §1

Ent. cloacae A-9656 = assay: MIC, tube dilution, Enterobacter cloacae A9656; format: cell-based; conditions: Enterobacter cloacae, A9656, Enterobacter cloacae A9656; overnight 37° C.; read-out: Minimum Inhibitory Concentration (M.I.C.)
Source text: as §1

E. coli A-20341-1 = assay: MIC, tube dilution, Escherichia coli A20341-1; format: cell-based; conditions: Escherichia coli, A203411, E. coli A20341-1; overnight 37° C.; read-out: Minimum Inhibitory Concentration (M.I.C.)
Source text: as §1

Pr. mirabilis A-9900 = assay: MIC, tube dilution, Proteus mirabilis A9900; format: cell-based; conditions: Proteus mirabilis, A9900, Proteus mirabilis A9900; overnight 37° C.; read-out: Minimum Inhibitory Concentration (M.I.C.)
Source text: as §1

Str. pyogenes A-9604 = assay: MIC, tube dilution, Streptococcus pyogenes A9604; format: cell-based; conditions: Streptococcus pyogenes, A9604, Str. pyogenes A9604; overnight 37° C., Nutrient Broth; read-out: Minimum Inhibitory Concentration (M.I.C.)
Source text: as §1

E. coli A15119 = assay: In vivo protection of mice, lethal infection with E. coli A15119; conditions: Escherichia coli, 2 treatments, read-out: PD50
Method: (§2) Representative compounds of the present invention were also tested in vivo in mice and their PD50 (dose of compound in mg/kg required to protect 50% of the treated mice against an otherwise lethal infection of a micro-organism) values determined with respect to the test organisms shown below.

[7] = Mouse blood levels after intramuscular administration; format: in vivo; conditions: average of 6 mice, read-out: Mouse blood level
Method: Mouse blood levels after intramuscular administration of representative compounds of the present invention were determined and are reported in the table below.

S. aureus A9537 = assay: In vivo protection of mice, lethal infection with S. aureus A9537; conditions: Staphylococcus aureus, 2 treatments, read-out: PD50
Method: as §2

Proteus vulgaris A21559 = assay: MIC, tube dilution, Proteus vulgaris A21559; format: cell-based; conditions: Proteus vulgaris, A21559, Proteus vulgaris A21559; overnight 37° C.; read-out: Minimum Inhibitory Concentration (M.I.C.)
Source text: as §1

β-lactamases = conditions: literature; cited from earlier work

SMILES	MIC (Str. pneumoniae A-9585)	MIC (Str. faecalis A-20688)	MIC (E. coli A-15119)	MIC (Staph. aureus A-9537)	MIC (Ser. marcescens A-20019)	MIC (Proteus rettgeri A21203)	MIC (Ent. cloacae A-9659)	MIC (K. pneumoniae A-15130)	MIC [2]	MIC (Ps. aeruginosa A-21213)	MIC [4]	MIC (Ps. aeruginosa A-9843A)	MIC [5]	MIC [6]	MIC (Pr. morganii A-15153)	MIC (Ent. cloacae A-9656)	MIC (E. coli A-20341-1)	MIC (Pr. mirabilis A-9900)	MIC (Str. pyogenes A-9604)	β-lactamase inhibition (β-lactamases)	also measured
C[C@@H](O)[C@H]1C(=O)N2C(C(=O)O)=C(SCCN)C[C@H]12 [thienamycin]	–	–	–	–	–	–	–	–	–	–	–	–	–	–	–	–	–	–	–	–	antibacterial activity [1]: highly potent broad-spectrum antibiotic
CC(=O)NCCC1=C(C(=O)O)N2C(=O)CC2S1 (centres unmarked) [Example 25, Sodium 2-(2'-Acetamido-1'-ethyl)penem-3-carboxylate]	0.25 µg/mL	63 µg/mL	4 µg/mL	0.5 µg/mL	4 µg/mL	8 µg/mL	4 µg/mL	16 µg/mL	8 µg/mL	> 125 µg/mL	1 µg/mL	16 µg/mL	> 125 µg/mL	125 µg/mL	4 µg/mL	8 µg/mL	63 µg/mL	4 µg/mL	0.25 µg/mL	–	MIC [3]: > 125 µg/mL
N[C@H]1C[C@@H](C2=C(C(=O)O)N3C(=O)C[C@H]3S2)C1 [Example 78, 2-(cis-3'-Aminocyclobutyl)penem-3-carboxylic Acid]	0.03 µg/mL (≈ 0.125 µM)	16 µg/mL (≈ 66.6 µM)	2 µg/mL (≈ 8.32 µM)	0.13 µg/mL (≈ 0.541 µM)	4 µg/mL (≈ 16.6 µM)	4 µg/mL (≈ 16.6 µM)	4 µg/mL (≈ 16.6 µM)	4 µg/mL (≈ 16.6 µM)	2 µg/mL	> 125 µg/mL	16 µg/mL (≈ 66.6 µM)	16 µg/mL (≈ 66.6 µM)	> 125 µg/mL	8 µg/mL (≈ 33.3 µM)	8 µg/mL (≈ 33.3 µM)	4 µg/mL (≈ 16.6 µM)	16 µg/mL (≈ 66.6 µM)	4 µg/mL (≈ 16.6 µM)	0.06 µg/mL (≈ 0.25 µM)	–	ED50 (E. coli A15119; IM, 7 × 10^5 organisms): 28 mg/kg; concentration at 10 min ([7]; 10 minutes after IM 40 mg/kg): 29700 ng/mL; concentration at 20 min ([7]; 20 minutes after IM 40 mg/kg): 19300 ng/mL; concentration at 0.5 h ([7]; 30 minutes after IM 40 mg/kg): 12600 ng/mL; concentration at 0.75 h ([7]; 45 minutes after IM 40 mg/kg): 6600 ng/mL; concentration at 1 h ([7]; 60 minutes after IM 40 mg/kg): < 5000 ng/mL; concentration at 1.5 h ([7]; 90 minutes after IM 40 mg/kg): < 5000 ng/mL; concentration at 2 h ([7]; 120 minutes after IM 40 mg/kg): < 5000 ng/mL; ED50 (S. aureus A9537; A9537, im, IM, 1 × 10^6 organisms): 0.63 mg/kg; ED50 (S. aureus A9537; A9537, po, PO, 1 × 10^6 organisms): 2.5 mg/kg; MIC (Proteus vulgaris A21559): 4 µg/mL (≈ 16.6 µM)
CC(=O)NC=C[S+]([O-])C1=C(C(=O)O)N2C(=O)C(C(C)OS(=O)(=O)O)C2C1 (centres unmarked)	–	–	–	–	–	–	–	–	–	–	–	–	–	–	–	–	–	–	–	β-lactamase inhibitor	antibacterial activity [1]: some antibacterial activity
O=C(O)C1=C(CCCNO)SC2CC(=O)N12 (centres unmarked) [Example 26]	0.016 µg/mL (≈ 0.0655 µM)	63 µg/mL (≈ 258 µM)	0.5 µg/mL (≈ 2.05 µM)	0.13 µg/mL (≈ 0.532 µM)	1 µg/mL (≈ 4.09 µM)	2 µg/mL (≈ 8.19 µM)	2 µg/mL (≈ 8.19 µM)	8 µg/mL (≈ 32.8 µM)	4 µg/mL	125 µg/mL (≈ 512 µM)	8 µg/mL (≈ 32.8 µM)	1 µg/mL (≈ 4.09 µM)	> 125 µg/mL	125 µg/mL (≈ 512 µM)	1 µg/mL (≈ 4.09 µM)	1 µg/mL (≈ 4.09 µM)	63 µg/mL (≈ 258 µM)	1 µg/mL (≈ 4.09 µM)	0.06 µg/mL (≈ 0.246 µM)	–	MIC [3]: 125 µg/mL (≈ 512 µM)
COC(=O)C1=C(C)OC2C(NC(c3ccccc3)(c3ccccc3)c3ccccc3)C(=O)N12 (centres unmarked)	–	–	–	–	–	–	–	–	–	–	–	–	–	–	–	–	–	–	–	weak inhibitor of β-lactamases	–
O=C(O)C1=CSC2CC(=O)N12 (centres unmarked) [drawing 10]	–	–	–	–	–	–	–	–	–	–	–	–	–	–	–	–	–	–	–	no β-lactamase inhibitory activity	–
N[C@H]1C[C@H](C2=C(C(=O)O)N3C(=O)C[C@H]3S2)C1 [Example 75, 2-(trans 3-Aminocyclobutyl)-penem-3-carboxylic Acid]	0.002 µg/mL (≈ 0.00832 µM)	4 µg/mL (≈ 16.6 µM)	1 µg/mL (≈ 4.16 µM)	0.06 µg/mL (≈ 0.25 µM)	2 µg/mL (≈ 8.32 µM)	1 µg/mL (≈ 4.16 µM)	4 µg/mL (≈ 16.6 µM)	4 µg/mL (≈ 16.6 µM)	0.5 µg/mL	125 µg/mL (≈ 520 µM)	63 µg/mL (≈ 262 µM)	63 µg/mL (≈ 262 µM)	> 125 µg/mL	4 µg/mL (≈ 16.6 µM)	4 µg/mL (≈ 16.6 µM)	4 µg/mL (≈ 16.6 µM)	8 µg/mL (≈ 33.3 µM)	1 µg/mL (≈ 4.16 µM)	0.016 µg/mL (≈ 0.0666 µM)	–	ED50 (E. coli A15119; IM, 6.5 × 10^5 organisms): 25 mg/kg; ED50 (E. coli A15119; PO, 6.5 × 10^5 organisms): > 50 mg/kg; ED50 (S. aureus A9537; A9537, im, IM, 7.3 × 10^5 organisms): 0.4 mg/kg; MIC (Proteus vulgaris A21559): 2 µg/mL (≈ 8.32 µM)
